Results: ChEMBL document CHEMBL3400097, “Effect of arginine methylation on the RNA recognition and cellular uptake of Tat-derived peptides” (Bioorg Med Chem, 2015)
pKd: −log10 of the molar value.

Each molecule was assayed on Jurkat (assay: Cellular uptake in human Jurkat cells at 7 to 120 uM after 15 mins by 6-carboxyfluorescein staining-based flow cytometry). Conditions: 0.25 h; call rule not given here.
Type: ADME, cell-based

Structure (SMILES) | Drug uptake
N=C(N)NCCC[C@H](NC(=O)[C@H](CCCNC(=N)N)NC(=O)[C@H](CCCNC(=N)N)NC(=O)[C@H](CCC(N)=O)NC(=O)[C@H](CCCNC(=N)N)NC(=O)[C@H](CCCNC(=N)N)NC(=O)[C@H](CCCCN)NC(=O)[C@H](CCCCN)NC(=O)[C@H](CCCNC(=N)N)NC(=O)CNC(=O)[C@H](Cc1ccc(O)cc1)NC(=O)CCNC(=O)c1ccc2c(c1)C1(OC2=O)c2ccc(O)cc2Oc2cc(O)ccc21)C(N)=O | Active
CNC(=N)NCCC[C@H](NC(=O)CNC(=O)[C@H](Cc1ccc(O)cc1)NC(=O)CCNC(=O)c1ccc2c(c1)C1(OC2=O)c2ccc(O)cc2Oc2cc(O)ccc21)C(=O)N[C@@H](CCCCN)C(=O)N[C@@H](CCCCN)C(=O)N[C@@H](CCCNC(=N)N)C(=O)N[C@@H](CCCNC(=N)N)C(=O)N[C@@H](CCC(N)=O)C(=O)N[C@@H](CCCNC(=N)N)C(=O)N[C@@H](CCCNC(=N)N)C(=O)N[C@@H](CCCNC(=N)N)C(N)=O | Active
CNC(=N)NCCC[C@H](NC(=O)[C@H](CCCCN)NC(=O)[C@H](CCCCN)NC(=O)[C@H](CCCNC(=N)N)NC(=O)CNC(=O)[C@H](Cc1ccc(O)cc1)NC(=O)CCNC(=O)c1ccc2c(c1)C1(OC2=O)c2ccc(O)cc2Oc2cc(O)ccc21)C(=O)N[C@@H](CCCNC(=N)N)C(=O)N[C@@H](CCC(N)=O)C(=O)N[C@@H](CCCNC(=N)N)C(=O)N[C@@H](CCCNC(=N)N)C(=O)N[C@@H](CCCNC(=N)N)C(N)=O | Active
CNC(=N)NCCC[C@H](NC(=O)[C@H](CCCNC(=N)N)NC(=O)[C@H](CCCCN)NC(=O)[C@H](CCCCN)NC(=O)[C@H](CCCNC(=N)N)NC(=O)CNC(=O)[C@H](Cc1ccc(O)cc1)NC(=O)CCNC(=O)c1ccc2c(c1)C1(OC2=O)c2ccc(O)cc2Oc2cc(O)ccc21)C(=O)N[C@@H](CCC(N)=O)C(=O)N[C@@H](CCCNC(=N)N)C(=O)N[C@@H](CCCNC(=N)N)C(=O)N[C@@H](CCCNC(=N)N)C(N)=O | Active
CNC(=N)NCCC[C@H](NC(=O)[C@H](CCC(N)=O)NC(=O)[C@H](CCCNC(=N)N)NC(=O)[C@H](CCCNC(=N)N)NC(=O)[C@H](CCCCN)NC(=O)[C@H](CCCCN)NC(=O)[C@H](CCCNC(=N)N)NC(=O)CNC(=O)[C@H](Cc1ccc(O)cc1)NC(=O)CCNC(=O)c1ccc2c(c1)C1(OC2=O)c2ccc(O)cc2Oc2cc(O)ccc21)C(=O)N[C@@H](CCCNC(=N)N)C(=O)N[C@@H](CCCNC(=N)N)C(N)=O | Active
CNC(=N)NCCC[C@H](NC(=O)[C@H](CCCNC(=N)N)NC(=O)[C@H](CCC(N)=O)NC(=O)[C@H](CCCNC(=N)N)NC(=O)[C@H](CCCNC(=N)N)NC(=O)[C@H](CCCCN)NC(=O)[C@H](CCCCN)NC(=O)[C@H](CCCNC(=N)N)NC(=O)CNC(=O)[C@H](Cc1ccc(O)cc1)NC(=O)CCNC(=O)c1ccc2c(c1)C1(OC2=O)c2ccc(O)cc2Oc2cc(O)ccc21)C(=O)N[C@@H](CCCNC(=N)N)C(N)=O | Active
CNC(=N)NCCC[C@H](NC(=O)[C@H](CCCNC(=N)N)NC(=O)[C@H](CCCNC(=N)N)NC(=O)[C@H](CCC(N)=O)NC(=O)[C@H](CCCNC(=N)N)NC(=O)[C@H](CCCNC(=N)N)NC(=O)[C@H](CCCCN)NC(=O)[C@H](CCCCN)NC(=O)[C@H](CCCNC(=N)N)NC(=O)CNC(=O)[C@H](Cc1ccc(O)cc1)NC(=O)CCNC(=O)c1ccc2c(c1)C1(OC2=O)c2ccc(O)cc2Oc2cc(O)ccc21)C(N)=O | Active
CN(C)C(=N)NCCC[C@H](NC(=O)CNC(=O)[C@H](Cc1ccc(O)cc1)NC(=O)CCNC(=O)c1ccc2c(c1)C1(OC2=O)c2ccc(O)cc2Oc2cc(O)ccc21)C(=O)N[C@@H](CCCCN)C(=O)N[C@@H](CCCCN)C(=O)N[C@@H](CCCNC(=N)N)C(=O)N[C@@H](CCCNC(=N)N)C(=O)N[C@@H](CCC(N)=O)C(=O)N[C@@H](CCCNC(=N)N)C(=O)N[C@@H](CCCNC(=N)N)C(=O)N[C@@H](CCCNC(=N)N)C(N)=O | Active
CN(C)C(=N)NCCC[C@H](NC(=O)[C@H](CCCCN)NC(=O)[C@H](CCCCN)NC(=O)[C@H](CCCNC(=N)N)NC(=O)CNC(=O)[C@H](Cc1ccc(O)cc1)NC(=O)CCNC(=O)c1ccc2c(c1)C1(OC2=O)c2ccc(O)cc2Oc2cc(O)ccc21)C(=O)N[C@@H](CCCNC(=N)N)C(=O)N[C@@H](CCC(N)=O)C(=O)N[C@@H](CCCNC(=N)N)C(=O)N[C@@H](CCCNC(=N)N)C(=O)N[C@@H](CCCNC(=N)N)C(N)=O | Active
CN(C)C(=N)NCCC[C@H](NC(=O)[C@H](CCCNC(=N)N)NC(=O)[C@H](CCCCN)NC(=O)[C@H](CCCCN)NC(=O)[C@H](CCCNC(=N)N)NC(=O)CNC(=O)[C@H](Cc1ccc(O)cc1)NC(=O)CCNC(=O)c1ccc2c(c1)C1(OC2=O)c2ccc(O)cc2Oc2cc(O)ccc21)C(=O)N[C@@H](CCC(N)=O)C(=O)N[C@@H](CCCNC(=N)N)C(=O)N[C@@H](CCCNC(=N)N)C(=O)N[C@@H](CCCNC(=N)N)C(N)=O | Active
CN(C)C(=N)NCCC[C@H](NC(=O)[C@H](CCC(N)=O)NC(=O)[C@H](CCCNC(=N)N)NC(=O)[C@H](CCCNC(=N)N)NC(=O)[C@H](CCCCN)NC(=O)[C@H](CCCCN)NC(=O)[C@H](CCCNC(=N)N)NC(=O)CNC(=O)[C@H](Cc1ccc(O)cc1)NC(=O)CCNC(=O)c1ccc2c(c1)C1(OC2=O)c2ccc(O)cc2Oc2cc(O)ccc21)C(=O)N[C@@H](CCCNC(=N)N)C(=O)N[C@@H](CCCNC(=N)N)C(N)=O | Active
CN(C)C(=N)NCCC[C@H](NC(=O)[C@H](CCCNC(=N)N)NC(=O)[C@H](CCC(N)=O)NC(=O)[C@H](CCCNC(=N)N)NC(=O)[C@H](CCCNC(=N)N)NC(=O)[C@H](CCCCN)NC(=O)[C@H](CCCCN)NC(=O)[C@H](CCCNC(=N)N)NC(=O)CNC(=O)[C@H](Cc1ccc(O)cc1)NC(=O)CCNC(=O)c1ccc2c(c1)C1(OC2=O)c2ccc(O)cc2Oc2cc(O)ccc21)C(=O)N[C@@H](CCCNC(=N)N)C(N)=O | Active
CN(C)C(=N)NCCC[C@H](NC(=O)[C@H](CCCNC(=N)N)NC(=O)[C@H](CCCNC(=N)N)NC(=O)[C@H](CCC(N)=O)NC(=O)[C@H](CCCNC(=N)N)NC(=O)[C@H](CCCNC(=N)N)NC(=O)[C@H](CCCCN)NC(=O)[C@H](CCCCN)NC(=O)[C@H](CCCNC(=N)N)NC(=O)CNC(=O)[C@H](Cc1ccc(O)cc1)NC(=O)CCNC(=O)c1ccc2c(c1)C1(OC2=O)c2ccc(O)cc2Oc2cc(O)ccc21)C(N)=O | Active
C/N=C(\NC)NCCC[C@H](NC(=O)CNC(=O)[C@H](Cc1ccc(O)cc1)NC(=O)CCNC(=O)c1ccc2c(c1)C1(OC2=O)c2ccc(O)cc2Oc2cc(O)ccc21)C(=O)N[C@@H](CCCCN)C(=O)N[C@@H](CCCCN)C(=O)N[C@@H](CCCNC(=N)N)C(=O)N[C@@H](CCCNC(=N)N)C(=O)N[C@@H](CCC(N)=O)C(=O)N[C@@H](CCCNC(=N)N)C(=O)N[C@@H](CCCNC(=N)N)C(=O)N[C@@H](CCCNC(=N)N)C(N)=O | Active
C/N=C(\NC)NCCC[C@H](NC(=O)[C@H](CCCCN)NC(=O)[C@H](CCCCN)NC(=O)[C@H](CCCNC(=N)N)NC(=O)CNC(=O)[C@H](Cc1ccc(O)cc1)NC(=O)CCNC(=O)c1ccc2c(c1)C1(OC2=O)c2ccc(O)cc2Oc2cc(O)ccc21)C(=O)N[C@@H](CCCNC(=N)N)C(=O)N[C@@H](CCC(N)=O)C(=O)N[C@@H](CCCNC(=N)N)C(=O)N[C@@H](CCCNC(=N)N)C(=O)N[C@@H](CCCNC(=N)N)C(N)=O | Active
C/N=C(\NC)NCCC[C@H](NC(=O)[C@H](CCCNC(=N)N)NC(=O)[C@H](CCCCN)NC(=O)[C@H](CCCCN)NC(=O)[C@H](CCCNC(=N)N)NC(=O)CNC(=O)[C@H](Cc1ccc(O)cc1)NC(=O)CCNC(=O)c1ccc2c(c1)C1(OC2=O)c2ccc(O)cc2Oc2cc(O)ccc21)C(=O)N[C@@H](CCC(N)=O)C(=O)N[C@@H](CCCNC(=N)N)C(=O)N[C@@H](CCCNC(=N)N)C(=O)N[C@@H](CCCNC(=N)N)C(N)=O | Active
C/N=C(\NC)NCCC[C@H](NC(=O)[C@H](CCC(N)=O)NC(=O)[C@H](CCCNC(=N)N)NC(=O)[C@H](CCCNC(=N)N)NC(=O)[C@H](CCCCN)NC(=O)[C@H](CCCCN)NC(=O)[C@H](CCCNC(=N)N)NC(=O)CNC(=O)[C@H](Cc1ccc(O)cc1)NC(=O)CCNC(=O)c1ccc2c(c1)C1(OC2=O)c2ccc(O)cc2Oc2cc(O)ccc21)C(=O)N[C@@H](CCCNC(=N)N)C(=O)N[C@@H](CCCNC(=N)N)C(N)=O | Active
C/N=C(\NC)NCCC[C@H](NC(=O)[C@H](CCCNC(=N)N)NC(=O)[C@H](CCC(N)=O)NC(=O)[C@H](CCCNC(=N)N)NC(=O)[C@H](CCCNC(=N)N)NC(=O)[C@H](CCCCN)NC(=O)[C@H](CCCCN)NC(=O)[C@H](CCCNC(=N)N)NC(=O)CNC(=O)[C@H](Cc1ccc(O)cc1)NC(=O)CCNC(=O)c1ccc2c(c1)C1(OC2=O)c2ccc(O)cc2Oc2cc(O)ccc21)C(=O)N[C@@H](CCCNC(=N)N)C(N)=O | Active
C/N=C(\NC)NCCC[C@H](NC(=O)[C@H](CCCNC(=N)N)NC(=O)[C@H](CCCNC(=N)N)NC(=O)[C@H](CCC(N)=O)NC(=O)[C@H](CCCNC(=N)N)NC(=O)[C@H](CCCNC(=N)N)NC(=O)[C@H](CCCCN)NC(=O)[C@H](CCCCN)NC(=O)[C@H](CCCNC(=N)N)NC(=O)CNC(=O)[C@H](Cc1ccc(O)cc1)NC(=O)CCNC(=O)c1ccc2c(c1)C1(OC2=O)c2ccc(O)cc2Oc2cc(O)ccc21)C(N)=O | Active

The molecules below were run on Nucleic Acid (assay: Binding affinity to HIV TAR RNA by electrophoretic mobility shift assay in presence of Escherichia coli tRNA). Conditions: not given.
Type: nucleic-acid assay, Human immunodeficiency virus

Structure (SMILES) | pKd
C/N=C(\NC)NCCC[C@H](NC(=O)[C@H](CCCNC(=N)N)NC(=O)[C@H](CCC(N)=O)NC(=O)[C@H](CCCNC(=N)N)NC(=O)[C@H](CCCNC(=N)N)NC(=O)[C@H](CCCCN)NC(=O)[C@H](CCCCN)NC(=O)[C@H](CCCNC(=N)N)NC(=O)CNC(=O)[C@H](Cc1ccc(O)cc1)NC(C)=O)C(=O)N[C@@H](CCCNC(=N)N)C(N)=O | 6.50
C/N=C(\NC)NCCC[C@H](NC(=O)[C@H](CCCNC(=N)N)NC(=O)[C@H](CCCNC(=N)N)NC(=O)[C@H](CCC(N)=O)NC(=O)[C@H](CCCNC(=N)N)NC(=O)[C@H](CCCNC(=N)N)NC(=O)[C@H](CCCCN)NC(=O)[C@H](CCCCN)NC(=O)[C@H](CCCNC(=N)N)NC(=O)CNC(=O)[C@H](Cc1ccc(O)cc1)NC(C)=O)C(N)=O | 6.58

What follows are molecules tested on Jurkat (assay: Cytotoxicity against human Jurkat cells assessed as cell viability at 120 uM after 4 hrs by WST-1 assay). Conditions: not given.
Type: cell-based

Structure (SMILES) | Activity
C/N=C(\NC)NCCC[C@H](NC(=O)[C@H](CCCNC(=N)N)NC(=O)[C@H](CCC(N)=O)NC(=O)[C@H](CCCNC(=N)N)NC(=O)[C@H](CCCNC(=N)N)NC(=O)[C@H](CCCCN)NC(=O)[C@H](CCCCN)NC(=O)[C@H](CCCNC(=N)N)NC(=O)CNC(=O)[C@H](Cc1ccc(O)cc1)NC(C)=O)C(=O)N[C@@H](CCCNC(=N)N)C(N)=O | Non-toxic
C/N=C(\NC)NCCC[C@H](NC(=O)[C@H](CCCNC(=N)N)NC(=O)[C@H](CCCNC(=N)N)NC(=O)[C@H](CCC(N)=O)NC(=O)[C@H](CCCNC(=N)N)NC(=O)[C@H](CCCNC(=N)N)NC(=O)[C@H](CCCCN)NC(=O)[C@H](CCCCN)NC(=O)[C@H](CCCNC(=N)N)NC(=O)CNC(=O)[C@H](Cc1ccc(O)cc1)NC(C)=O)C(N)=O | Non-toxic
